Target: human BTK (Homo sapiens (Human), UniProt Q06187)
Assay: BTK inhibition assay (phosphorylation of 5-FAM-labeled substrate, Caliper LC-3000)
Type: biochemical
Settings: residues 382 to 659 of human BTK; 60 minutes at room temperature
From the text: The activity of compound of Formula 1, stereoisomer thereof, or tautomers of the compound as Formula 1 or stereoisomer thereof, as BTK inhibitors may be determined by a variety of methods, including in vitro and in vivo methods. The following in vitro assay measures a test compound's ability to inhibit BTK-mediated phosphorylation of a FAM-labeled substrate, 5-FAM-[…]-NH2.
Purified BTK may be obtained as follows (Clone SBVC-1603_9P is used). A cDNA sequence encoding residues 382 to 659 of human BTK is cloned into the vector pSXB4. This construct engineers an in-frame translational fusion with the Glutathione-S-Transferase (GST) protein for use in affinity purification. The fusion protein derived from this construct contains a protease recognition sequence to liberate the BTK from the GST affinity tag. High-titer baculoviral stocks, generated using the Bac-to-Bac® system (Invitrogen), are used to express the recombinant protein in Spodoptera frugiperda Sf9 cells in 10 L Wave bags. Recombinant proteins are isolated from cellular extracts by passage over Glutathione Sepharose 4B (GE Healthcare) and the BTK moiety is released from the GST affinity tag by treatment with PreScission protease. […] The purity of the fractions is assessed by SDS PAGE and the peak protein fractions are pooled and concentrated using Amicon Ultra-15 Centrifugal Filter Devices (Millipore).

Chain of human BTK (Q06187 382-659): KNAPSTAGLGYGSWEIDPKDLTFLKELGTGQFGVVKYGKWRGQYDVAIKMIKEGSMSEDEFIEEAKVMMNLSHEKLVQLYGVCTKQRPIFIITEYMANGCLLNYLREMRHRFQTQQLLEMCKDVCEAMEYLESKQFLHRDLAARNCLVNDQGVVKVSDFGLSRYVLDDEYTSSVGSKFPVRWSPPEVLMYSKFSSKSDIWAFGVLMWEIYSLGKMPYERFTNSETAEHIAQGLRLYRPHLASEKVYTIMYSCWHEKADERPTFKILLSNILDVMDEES

BTK Inhibition (pIC50): >8.7
Compound: C=CC(=O)N1CC[C@H](Oc2nc(-c3n[nH]c(=O)[nH]3)cc3ccccc23)C1 [Example 1, (S)-3-(1-((1-acryloylpyrrolidin-3-yl)oxy)isoquinolin-3-yl)-1H-1,2,4-triazol-5(4H)-one]

Source: US11786608B2, “Isoquinolinyl triazolone complexes” (Takeda Pharmaceutical Company Limited, priority 2016, dated 2023)
